Measured values from ChEMBL document CHEMBL4257551, “Glycyrrhizic acid from licorice down-regulates inflammatory responses via blocking MAPK and PI3K/Akt-dependent NF-κB signalling pathways in TPA-induced skin inflammation” (2018).

Legend:
Assay type in all cases: functional
Mus musculus [1] = assay: Antiinflammatory activity against TPA-induced ear edema in BALB/c mouse assessed as weight of ear punches at 5 mM administered topically for 15 mins prior to TPA challenge and measured after 6 hrs (reference value: 12.5 +/- 0.3 mg)
Mus musculus [2] = assay: Antiinflammatory activity against TPA-induced ear edema in BALB/c mouse assessed as weight of ear punches at 5 mM administered topically for 15 mins prior to TPA challenge and measured after 24 hrs (reference value: 12.1 +/- 0.2 mg)
Mus musculus [3] = assay: Antiinflammatory activity against TPA-induced ear edema in BALB/c mouse assessed as weight of ear punches at 5 mM administered topically for 15 mins prior to TPA challenge and measured after 48 hrs (reference value: 11.4 +/- 0.3 mg)
Mus musculus [4] = assay: Antiinflammatory activity against TPA-induced ear edema in BALB/c mouse assessed as weight of ear punches at 5 mM administered topically for 15 mins prior to TPA challenge and measured after 3 hrs (reference value: 8.3 +/- 0.1 mg)
Mus musculus [5] = assay: Antiinflammatory activity against TPA-induced ear edema in BALB/c mouse assessed as weight of ear punches at 5 mM administered topically for 15 mins prior to TPA challenge and measured after 12 hrs (reference value: 12.4 +/- 0.1 mg)

Structure (SMILES): C[C@]12C=CC(=O)C=C1CC[C@@H]1[C@@H]2[C@@H](O)C[C@@]2(C)[C@H]1CC[C@]2(O)C(=O)CO [PREDNISOLONE]
- Activity (Mus musculus [1]): 5.6 mg
- Activity (Mus musculus [2]): 5.6 mg
- Activity (Mus musculus [3]): 5.6 mg
- Activity (Mus musculus [4]): 5.4 mg
- Activity (Mus musculus [5]): 5.7 mg
